Laboratory results published in patent publication US20110275813A1, “Bicylic 1,3-diones and Their Use as Insecticides, Acaricides and/or Fungicides” (Bayer Cropscience AG, priority 2009, published 2011).

How the values were obtained:
Type in all cases: in vivo
[1] = tested on: Sphaerotheca fuliginea; assay: Sphaerotheca test (cucumber)/preventive; settings: preventive, 7 days after inoculation
Method: Sphaerotheca Test (Cucumber)/Preventive
Solvent: 49 parts by weight of N,N-Dimethylformamide
Emulsifier: 1 part by weight of Alkylarylpolyglycolether
To produce a suitable preparation of active compound, 1 part by weight of active compound is mixed with the stated amounts of solvent and emulsifier, and the concentrate is diluted with water to the desired concentration.
To test for preventive activity, young plants are sprayed with the preparation of active compound at the stated rate of application. One day after this treatment, the plants are inoculated with an aqueous spore suspension of Sphaerotheca fuliginea. Then the plants are placed in a greenhouse at approximately 23° C. and a relative atmospheric humidity of approximately 70%.
The test is evaluated 7 days after the inoculation. 0% means an efficacy which corresponds to that of the control, while an efficacy of 100% means that no disease is observed.

[2] = tested on: Tetranychus urticae; assay: Tetranychus urticae test; OP-resistant (TETRUR spray application); settings: 120 h, spray on infested French beans, after 5 days
Method: Tetranychus urticae—Test; OP-Resistant (TETRUR Spray Application)
(§1) Solvent: 78.0 parts by weight acetone • 1.5 parts by weight dimethylformamide
(§2) Emulsifier: 0.5 parts by weight alkylarylpolyglycolether
(§3) To produce a suitable preparation of active compound, 1 part by weight of active compound is mixed with the stated amount of solvent and emulsifier, and the concentrate is diluted with emulsifier-containing water to the desired concentration. French beans (Phaseolus vulgaris) which are heavily infested with all stages of the two spotted spidermite (Tetranychus urticae), are sprayed with a preparation of the active ingredient at the desired concentration.
After 5 days mortality in % is determined. 100% means that all spider mites have been killed and 0% means that none of the spider mites have been killed.

[3] = tested on: Spodoptera frugiperda; assay: Spodoptera frugiperda test (SPODFR spray application); settings: 168 h, sprayed maize leaf sections, after 7 days
Excerpt: Spodoptera frugiperda—Test (SPODFR Spray Application)
as §1, §2
To produce a suitable preparation of the active compound, 1 part by weight of active compound is mixed with the stated amount of solvent and emulsifier, and the concentrate is dilutes with emulsifier-containing water to the desired concentration. Maize (Zea mais) leaf sections are sprayed with a preparation of the active ingredient of the desired concentration. Once dry, the leaf sections are infested with fall armyworm larvae (Spodoptera frugiperda).
After 7 days mortality in % is determined. 100% means that all caterpillars have been killed and 0% means that none of the caterpillars have been killed.

[4] = tested on: Myzus persicae; assay: Myzus persicae test (MYZUPE spray application); settings: 144 h, sprayed Chinese cabbage leaf-disks, after 6 days
Method: Myzus persicae—Test; (MYZUPE Spray Application)
as §1, §2
as §3, with “Chinese cabbage (Brassica pekinesis) leaf-disks infected” for “French beans (Phaseolus vulgaris) which are heavily infested”, “instars” for “stages”, “green peach aphid (Myzus persicae),” for “two spotted spidermite (Tetranychus urticae),”
After 6 days mortality in % is determined. 100% means that all aphids have been killed; 0% means that none of the aphids have been killed.

[5] = tested on: Phaedon cochleariae; assay: Phaedon cochleariae test (PHAECO spray application); settings: 168 h, sprayed Chinese cabbage leaf-disks, after 7 days
Method: Phaedon cochleariae—Test; (PHAECO Spray Application)
Solvent: 78.0 parts by weight of acetone • • 1.5 parts by weight of dimethylformamide
Emulsifier: 0.5 parts by weight of alkylaryl polyglycolether
To produce a suitable preparation of active compound, 1 part by weight of active compound is mixed with the stated amount of solvent and emulsifier, and the concentrate is diluted with emulsifier-containing water to the desired concentration. Chinese cabbage (Brassica pekinesis) leaf-disks are sprayed with a preparation of the active ingredient of the desired concentration. Once dry, the leaf disks are infested with mustard beetle larvae (Phaedon cochleariae).
After 7 days mortality in % is determined. 100% means that all beetle larvae have been killed and 0% means that none of the beetle larvae have been killed.

## CC12CCC(C(=O)C(c3cc(-c4ccc(Cl)cc4)ccc3Cl)=C1O)C2(C)C (stereo not drawn) [T 114]
[1]; 500 ppm
  Efficacy in %: 90%
[2]; 20 g/ha
  mortality at 20 g/ha: ≥ 80%

## Cc1ccc(-c2ccc(Cl)cc2)cc1C1=C(O)[C@H]2CC[C@H](C2)C1=O [Compound T1]
[1]; 500 ppm
  Efficacy in %: 95%
[3]; 500 g/ha
  mortality at 500 g/ha: ≥ 80%
[4]
  mortality at 500 g/ha: ≥ 80%
[5]
  mortality at 500 g/ha: ≥ 80%
[2]; 500 g/ha
  mortality at 500 g/ha: ≥ 80%

## Cc1ccc(-c2ccc(Cl)cc2)cc1C1=C(O)C2(C)CCC(C1=O)C2(C)C (stereo not drawn) [T 115]
[1]; 250 ppm
  Efficacy in %: 80%
[3]; 100 g/ha
  mortality at 100 g/ha: ≥ 80%
